Measured values reported in patent US20240343734A1, “NOVEL SMALL MOLECULE INHIBITORS OF PUS7 AND USES THEREOF” (City of Hope, priority 2021, published 2024).

System: GSCs
Assay: GSC growth (several lines, stated for GSCs in general)
Format: cell-based, human
Conditions: 0.5, 1, 2, 4, 8 μM
Procedure: GSCs were derived from newly diagnosed grade IV GBM patients. GSCs and NSCs were maintained in spheres in DMEM-F12 medium supplemented with 2 mM L-glutamine, 27.4 mM HEPES, B27, 20 ng ml^−1 EGF, 20 ng ml^−1 FGF and 5 μg ml^−1 heparin as described (Cui, Q., et al., supra). Established GBM cells were maintained in DMEM medium supplemented with 2 mM L-glutamine and 10% FBS. All cultures were mycoplasma-free as confirmed using MycoAlert PLUS Mycoplasma Detection Kit (Lonza). GSCs or NSCs were treated with PUS7 inhibitors at indicated concentration for 72 h. GSCs were treated with IFNα at indicated doses for 6 days.
GSC growth, sphere formation and limiting dilution assays were performed as described 9 Cui, Q., et al., supra). For growth, GSCs were seeded at 5×10^4 cells per well in 24-well plates and cultured for 7 days. Cell growth was monitored by cell counting using a hemocytometer. For sphere formation, GSCs were seeded at 1 cell per well in 96-well plates or 100 cells per well in 48-well plates and cultured for 2 weeks. Spheres were counted under microscope. For limiting dilution assay, GSCs were seeded into 96-well plates at 1, 5, 10, 20, 50 and 100 cells per well. The number of sphere-forming wells was recorded in two weeks. The limiting dilution analysis was performed using the extreme limiting dilution analysis software at http://bioinf.wehi.edu.au/software/elda.

NC(=O)c1[nH]nc([C@@H]2O[C@H](CO)[C@@H](O)[C@H]2O)c1O [pyrazofurin]
dose effect on the growth of PBT003 and PBT707 GSCs (significance) (FIG. 17B): p<0.0001 for 0.5, 1, 2, 4, and 8 μM conditions
dose effect on the growth of PBT0030, NSC005, and NSC010 (significance) (FIG. 17C): p<0.0001 for 0.5, 1, 2, 4, and 8 μM conditions for PBT030 only
